The target of test [1] is T1, Nitric oxide synthase, inducible (Mus musculus, UniProt P29477).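 Further: inhibition of iNOS enzyme activity measured with L-arginine as substrate; in other assays of this panel Not Active means under 50% inhibition at 10 µM.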
T1 sequence (P29477 whole entry): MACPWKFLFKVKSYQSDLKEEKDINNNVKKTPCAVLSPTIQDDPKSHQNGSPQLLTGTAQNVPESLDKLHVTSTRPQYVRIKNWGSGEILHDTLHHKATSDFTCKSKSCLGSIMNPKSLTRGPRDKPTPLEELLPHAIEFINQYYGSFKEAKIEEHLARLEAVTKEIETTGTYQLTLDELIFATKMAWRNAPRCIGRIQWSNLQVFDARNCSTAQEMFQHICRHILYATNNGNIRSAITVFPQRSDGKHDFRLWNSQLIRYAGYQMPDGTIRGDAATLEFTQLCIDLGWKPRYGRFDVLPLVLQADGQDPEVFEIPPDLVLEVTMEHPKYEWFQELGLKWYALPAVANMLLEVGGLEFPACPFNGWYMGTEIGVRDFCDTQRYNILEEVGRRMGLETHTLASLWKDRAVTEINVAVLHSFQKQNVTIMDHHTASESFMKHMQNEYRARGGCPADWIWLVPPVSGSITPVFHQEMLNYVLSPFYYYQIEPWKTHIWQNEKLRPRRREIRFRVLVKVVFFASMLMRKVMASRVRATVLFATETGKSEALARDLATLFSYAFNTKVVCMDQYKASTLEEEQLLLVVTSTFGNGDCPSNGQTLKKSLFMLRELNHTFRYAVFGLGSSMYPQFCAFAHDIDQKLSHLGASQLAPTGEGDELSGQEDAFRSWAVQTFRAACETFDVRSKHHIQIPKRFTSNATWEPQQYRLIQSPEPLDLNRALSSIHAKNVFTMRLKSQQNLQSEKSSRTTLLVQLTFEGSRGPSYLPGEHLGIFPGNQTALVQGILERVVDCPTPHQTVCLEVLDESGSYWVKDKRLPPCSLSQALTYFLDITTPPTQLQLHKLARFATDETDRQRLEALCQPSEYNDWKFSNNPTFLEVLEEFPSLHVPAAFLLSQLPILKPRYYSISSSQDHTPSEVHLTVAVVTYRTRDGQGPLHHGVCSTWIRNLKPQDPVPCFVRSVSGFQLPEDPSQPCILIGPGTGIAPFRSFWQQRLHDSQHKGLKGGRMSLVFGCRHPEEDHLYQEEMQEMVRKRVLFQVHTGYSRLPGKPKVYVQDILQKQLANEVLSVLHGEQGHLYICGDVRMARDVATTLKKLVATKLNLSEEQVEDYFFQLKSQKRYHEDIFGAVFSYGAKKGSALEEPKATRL
More on the design: species or system Escherichia coli.

Test [2] can be described thus: DRUGMATRIX: Nicotinic Acetylcholine radioligand binding (ligand: [125I] Epibatidine). The test is classed as cell membranes, Membrane. The conditions noted are these: imr-32; Not Active = under 50% inhibition at 10 µM.
Test [3] has as its target T2, Alpha-1B adrenergic receptor (Rattus norvegicus, UniProt P15823).
T2 sequence (P15823 whole entry): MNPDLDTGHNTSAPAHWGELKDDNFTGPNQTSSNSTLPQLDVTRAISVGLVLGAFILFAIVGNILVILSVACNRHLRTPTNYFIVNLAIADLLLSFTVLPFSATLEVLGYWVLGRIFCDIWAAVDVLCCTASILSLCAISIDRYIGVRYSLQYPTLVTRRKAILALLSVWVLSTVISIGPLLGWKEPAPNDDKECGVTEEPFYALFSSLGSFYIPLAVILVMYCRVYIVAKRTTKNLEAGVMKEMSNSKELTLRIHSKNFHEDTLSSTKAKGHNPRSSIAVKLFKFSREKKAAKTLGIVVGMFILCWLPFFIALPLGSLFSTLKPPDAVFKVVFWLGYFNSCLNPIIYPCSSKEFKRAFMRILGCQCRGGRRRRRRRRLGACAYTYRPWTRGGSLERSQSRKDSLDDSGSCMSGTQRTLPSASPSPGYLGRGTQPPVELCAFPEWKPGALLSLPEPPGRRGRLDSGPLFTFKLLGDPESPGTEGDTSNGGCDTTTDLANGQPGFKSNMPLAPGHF
Put plainly: DRUGMATRIX: Alpha-1B adrenergic receptor radioligand binding (ligand: prazosin). The conditions noted are these: Not Active = under 50% inhibition at 10 µM. The format is cell membranes, Wistar, Liver, Membrane.

Test [4] is described as follows: DRUGMATRIX: Calcium Channel Type L, Dihydropyridine radioligand binding (ligand: [3H] Nitrendipine). The conditions noted are these: Not Active = under 50% inhibition at 10 µM. The format is cell membranes, Rattus norvegicus, Wistar, Cerebral cortex, Membrane.
The target in test [5] is T3, Endothelin-1 receptor (Homo sapiens, UniProt P25101). Further: in other assays of this panel Not Active means under 50% inhibition at 10 µM.
T3 sequence (P25101 whole entry): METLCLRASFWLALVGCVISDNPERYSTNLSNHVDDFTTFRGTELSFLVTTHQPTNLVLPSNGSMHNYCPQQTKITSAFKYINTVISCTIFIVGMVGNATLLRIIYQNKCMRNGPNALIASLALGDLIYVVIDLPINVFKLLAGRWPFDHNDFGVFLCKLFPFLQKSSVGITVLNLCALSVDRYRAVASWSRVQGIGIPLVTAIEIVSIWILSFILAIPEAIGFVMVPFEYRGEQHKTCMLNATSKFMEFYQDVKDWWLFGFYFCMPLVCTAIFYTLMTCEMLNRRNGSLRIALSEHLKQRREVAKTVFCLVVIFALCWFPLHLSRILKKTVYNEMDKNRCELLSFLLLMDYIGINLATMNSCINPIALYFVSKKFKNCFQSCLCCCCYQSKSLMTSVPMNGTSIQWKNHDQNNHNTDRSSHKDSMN
The format is cell membranes, Membrane. The conditions noted are these: cho-k1.

Test [6] has as its target T4, C-C chemokine receptor type 4 (Homo sapiens, UniProt P51679). Further: in other assays of this panel Not Active means under 50% inhibition at 10 µM.
T4 sequence (P51679 whole entry): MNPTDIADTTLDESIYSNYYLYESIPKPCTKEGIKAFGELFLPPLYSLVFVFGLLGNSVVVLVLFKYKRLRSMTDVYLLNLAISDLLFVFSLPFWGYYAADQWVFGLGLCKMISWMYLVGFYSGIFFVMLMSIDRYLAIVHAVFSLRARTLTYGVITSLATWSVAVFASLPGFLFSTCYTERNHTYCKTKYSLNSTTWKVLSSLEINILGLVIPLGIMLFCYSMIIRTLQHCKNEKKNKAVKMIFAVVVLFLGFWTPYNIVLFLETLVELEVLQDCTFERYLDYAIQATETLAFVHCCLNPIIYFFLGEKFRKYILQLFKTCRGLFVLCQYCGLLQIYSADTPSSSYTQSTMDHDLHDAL
The test is classed as cell membranes, Membrane. The conditions noted are these: chem-1.

The target in test [7] is Epidermal growth factor receptor (Homo sapiens, UniProt P00533). Put plainly: DRUGMATRIX: Protein Tyrosine Kinase, EGF Receptor enzyme inhibition (substrate: Poly(Glu:Tyr)). The test is classed as cell-based, Insect cells. The conditions noted are these: insect cells; Not Active = under 50% inhibition at 10 µM.
Test [8] can be described thus: DRUGMATRIX: Phosphodiesterase PDE4 enzyme inhibition (substrate: [3H]cAMP + cAMP). The conditions noted are these: u-937; Not Active = under 50% inhibition at 10 µM.
Test [9] is described as follows: DRUGMATRIX: Serotonin (5-Hydroxytryptamine) 5-HT3 radioligand binding (ligand: [3H] GR-65630). The following applies: hek293, Not Active = under 50% inhibition at 10 µM. The test is classed as cell membranes, Membrane.

Chain of Epidermal growth factor receptor (P00533 whole entry): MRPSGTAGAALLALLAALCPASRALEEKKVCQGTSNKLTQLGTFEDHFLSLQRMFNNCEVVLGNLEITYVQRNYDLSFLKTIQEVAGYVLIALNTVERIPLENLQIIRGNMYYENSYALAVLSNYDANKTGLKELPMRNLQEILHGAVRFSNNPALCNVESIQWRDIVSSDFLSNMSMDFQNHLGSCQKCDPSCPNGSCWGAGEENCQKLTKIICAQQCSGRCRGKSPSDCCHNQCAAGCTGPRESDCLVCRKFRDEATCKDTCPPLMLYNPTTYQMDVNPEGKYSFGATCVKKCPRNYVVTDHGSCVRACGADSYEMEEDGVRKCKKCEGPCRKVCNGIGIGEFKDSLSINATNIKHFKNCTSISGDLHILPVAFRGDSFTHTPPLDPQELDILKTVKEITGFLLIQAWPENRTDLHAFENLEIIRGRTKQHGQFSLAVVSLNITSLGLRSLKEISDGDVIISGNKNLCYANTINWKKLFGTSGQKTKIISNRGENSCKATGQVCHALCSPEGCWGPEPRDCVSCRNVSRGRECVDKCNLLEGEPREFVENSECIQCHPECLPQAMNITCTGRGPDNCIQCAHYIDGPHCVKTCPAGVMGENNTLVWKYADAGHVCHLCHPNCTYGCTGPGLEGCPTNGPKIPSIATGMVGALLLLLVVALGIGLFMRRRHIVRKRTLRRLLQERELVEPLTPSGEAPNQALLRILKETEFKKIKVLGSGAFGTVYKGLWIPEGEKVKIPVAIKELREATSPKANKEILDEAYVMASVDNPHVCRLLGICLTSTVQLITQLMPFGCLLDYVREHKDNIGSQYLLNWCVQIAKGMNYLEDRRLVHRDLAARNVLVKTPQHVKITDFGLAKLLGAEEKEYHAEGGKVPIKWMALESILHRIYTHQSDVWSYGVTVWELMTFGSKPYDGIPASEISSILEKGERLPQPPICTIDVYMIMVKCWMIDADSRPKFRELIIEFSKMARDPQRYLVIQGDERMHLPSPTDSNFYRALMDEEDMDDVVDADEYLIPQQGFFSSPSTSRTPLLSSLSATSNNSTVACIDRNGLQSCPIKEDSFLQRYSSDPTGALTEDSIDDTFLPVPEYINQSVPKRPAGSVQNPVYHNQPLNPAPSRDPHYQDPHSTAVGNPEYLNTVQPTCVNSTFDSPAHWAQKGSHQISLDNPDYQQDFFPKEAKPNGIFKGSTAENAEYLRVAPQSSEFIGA

With `CC1CN(c2cc3c(cc2F)c(=O)c(C(=O)O)cn3-c2ccc(F)cc2F)CCN1` (centres undefined) [TEMAFLOXACIN], the IC50 entry in test [1], in test [2], in test [3], in test [4], in test [5] and in test [6] was “Not Active” in each case. Besides, the IC50 result in [7], in test [8] and in test [9] was “Not Active” each time. For the same molecule, the inhibition constant Ki entry in test [2], in test [4], in test [8] and in test [9] was “Not Active” each time.
For the molecule `CC(C)(C)NCC(O)c1cc(O)cc(O)c1` (centres undefined) [TERBUTALINE], the IC50 entry in test [1], in [2], in test [3], in test [4], in test [5] and in [6] was “Not Active” throughout. The IC50 entry in test [7], in [8] and in test [9] was “Not Active” in each case. Moreover, the Ki entry in test [2], in test [4], in [8] and in [9] was “Not Active” in each case.
Take `CN(C)[C@@H]1C(O)=C(C(N)=O)C(=O)[C@@]2(O)C(O)=C3C(=O)c4c(O)cccc4[C@@](C)(O)[C@H]3C[C@@H]12` [TETRACYCLINE]: the IC50 result in [1], in test [2], in [3], in test [4], in [5] and in test [6] was “Not Active” in each case. Moreover, the IC50 result in [7], in test [8] and in [9] was “Not Active” each time. Besides, the Ki result in [2], in test [4], in [8] and in test [9] was “Not Active” throughout.
`c1ccc2[nH]c(-c3cscn3)nc2c1` [THIABENDAZOLE]: the IC50 result in test [1], in test [2], in test [3], in [4], in test [5] and in [6] was “Not Active” each time. Also, the concentration for half-maximal inhibition (IC50) entry in [7], in test [8] and in test [9] was “Not Active” each time. For the same molecule, the Ki entry in [2], in test [4], in [8] and in test [9] was “Not Active” in each case.
As for `Cc1ccc(C(=O)C(C)CN2CCCCC2)cc1` (centres undefined) [TOLPERISONE], the IC50 entry in test [1], in test [2], in test [3], in test [4], in [5] and in [6] was “Not Active” throughout. Moreover, the IC50 result in [7], in [8] and in test [9] was “Not Active” each time. Further, the Ki entry in test [2], in test [4], in test [8] and in [9] was “Not Active” throughout.
Consider `NC(CO)(CO)CO` [TROMETHAMINE], for which the IC50 entry in test [1], in test [2], in test [3], in test [4], in [5] and in test [6] was “Not Active” each time. Further, the IC50 result in [7], in test [8] and in [9] was “Not Active” throughout. The Ki result in test [2], in test [4], in test [8] and in [9] was “Not Active” throughout.
As for `CN1[C@@H]2CC[C@H]1C[C@@H](OC(=O)c1c[nH]c3ccccc13)C2` [TROPISETRON], the half-inhibitory concentration (IC50) result in test [1], in test [2], in test [3], in test [4], in [5] and in test [6] was “Not Active” throughout. The IC50 entry is “Not Active” in [7], “Not Active” in test [8] and 6.76 nM in test [9] (read-out: IC50). For the same molecule, the inhibition constant Ki entry is “Not Active” in [2], “Not Active” in test [4], “Not Active” in test [8] and 1.52 nM in test [9] (read-out: Ki).
For the molecule `COc1cc(C(=O)NC2CCCNC2)cc(OC)c1OC` (centres undefined) [TROXIPIDE], the IC50 entry in test [1], in test [2], in [3], in test [4], in test [5] and in test [6] was “Not Active” in each case. For the same molecule, the IC50 entry in [7], in [8] and in test [9] was “Not Active” throughout. The Ki entry in test [2], in [4], in [8] and in test [9] was “Not Active” throughout.

For orientation: IC50 means the concentration that inhibits the measured activity by half. For orientation: Ki means the equilibrium dissociation constant of an inhibitor or competing ligand from its target.

Source of the values: ChEMBL document CHEMBL1909046, “DrugMatrix in vitro pharmacology data”.
